Measured values reported in US4835287A, “Antibiotic substance” (SS Pharmaceutical Co., Ltd., priority 1987, dated 1989).
Values after ≈ are worked out from the molar mass of the structure shown.

Legend:
[1] = system: Bacillus subtilis ATCC 6633; assay: Antimicrobial activity (MIC); type: cell-based; details: ATCC6633, read-out: Minimal Inhibitory Concentrations (MICs)
[2] = system: Staphylococcus aureus 209P; assay: Antimicrobial activity (MIC); type: cell-based; details: read-out: Minimal Inhibitory Concentrations (MICs)
[3] = system: Staphylococcus aureus Terajima; assay: Antimicrobial activity (MIC); type: cell-based; details: read-out: Minimal Inhibitory Concentrations (MICs)
[4] = system: Staphylococcus aureus Smith; assay: Antimicrobial activity (MIC); type: cell-based; details: read-out: Minimal Inhibitory Concentrations (MICs)
[5] = system: Staphylococcus epidermidis ATCC 12228; assay: Antimicrobial activity (MIC); type: cell-based; details: ATCC12228, read-out: Minimal Inhibitory Concentrations (MICs)
Sarcina lutea ATCC 9341 = assay: Antimicrobial activity (MIC); type: cell-based; details: Micrococcus luteus, ATCC9341, read-out: Minimal Inhibitory Concentrations (MICs)
[6] = system: Streptococcus faecalis IFO 12964; assay: Antimicrobial activity (MIC); type: cell-based; details: Enterococcus faecalis, IFO12964, read-out: Minimal Inhibitory Concentrations (MICs)
[7] = system: Micrococcus lysodeikticus IFO 3333; assay: Antimicrobial activity (MIC); type: cell-based; details: Micrococcus luteus, IFO3333, read-out: Minimal Inhibitory Concentrations (MICs)
Escherichia coli 0-1 = assay: Antimicrobial activity (MIC); type: cell-based; details: 01, read-out: Minimal Inhibitory Concentrations (MICs)
Shigella flexneri 2b = assay: Antimicrobial activity (MIC); type: cell-based; details: read-out: Minimal Inhibitory Concentrations (MICs)
[8] = system: Pseudomonas aeruqinosa IFO 13736; assay: Antimicrobial activity (MIC); type: cell-based; details: IFO13736, read-out: Minimal Inhibitory Concentrations (MICs)
[9] = system: Klebsiella pneumoniae ATCC 10031; assay: Antimicrobial activity (MIC); type: cell-based; details: ATCC10031, read-out: Minimal Inhibitory Concentrations (MICs)
Proteus rettgeri = assay: Antimicrobial activity (MIC); type: cell-based; details: Providencia rettgeri, read-out: Minimal Inhibitory Concentrations (MICs)
Serratia marcescens NHL = assay: Antimicrobial activity (MIC); type: cell-based; details: read-out: Minimal Inhibitory Concentrations (MICs)
[10] = system: Candida albicans NHL 4019; assay: Antimicrobial activity (MIC); type: cell-based; details: NHL4019, read-out: Minimal Inhibitory Concentrations (MICs)
[11] = system: Aspergillus niger ATCC 9642; assay: Antimicrobial activity (MIC); type: cell-based; details: ATCC9642, read-out: Minimal Inhibitory Concentrations (MICs)
[12] = system: Trichophyton tonsurans IFO 5928; assay: Antimicrobial activity (MIC); type: cell-based; details: IFO5928, read-out: Minimal Inhibitory Concentrations (MICs)
[13] = system: Pyricularia oryzae IAM 5016; assay: microbe, parasite or virus in culture; type: cell-based; details: IAM5016, read-out: Minimal Inhibitory Concentrations (MICs)
mouse leukemia P-388 = assay: Antitumor activity (life prolongation) on mouse leukemia P-388; type: in vivo; details: i.p. once a day ten times, CDF1 male mice, P-388 i.p.
Experimental: Curing effects of substances SS42227A and B on mouse leukemia P-388 were examined according to the following method. In the Table, the antitumor activities, or the effect of life prolongation, are expressed as the percentage of the survival time (days) of treated groups (T) per the survival time (days) for the untreated or control group (C).
CDF1 (male: supplied by Charles River Japan Inc.) were inoculated intraperitoneally with 1×10^6 P-388 cells. Then, commencing at 24 hours thereafter, substance SS42227A was intraperitoneally injected into the mice once a day and ten times in total.

Solubility to solvents = type: physicochemical
[14] = Property as to basic, acid or neutral; type: physicochemical

| SMILES | MIC [1] [µg/mL] | MIC [2] [µg/mL] | MIC [3] [µg/mL] | MIC [4] [µg/mL] | MIC [5] [µg/mL] | MIC (Sarcina lutea ATCC 9341) [µg/mL] | MIC [6] [µg/mL] | MIC [7] [µg/mL] | MIC (Escherichia coli 0-1) [µg/mL] | MIC (Shigella flexneri 2b) [µg/mL] | MIC [8] [µg/mL] | MIC [9] [µg/mL] | MIC (Proteus rettgeri) [µg/mL] | MIC (Serratia marcescens NHL) [µg/mL] | MIC [10] [µg/mL] | MIC [11] [µg/mL] | MIC [12] [µg/mL] | MIC [13] [µg/mL] | Solubility to solvents (Solubility to solvents; acetone) | Solubility to solvents (Solubility to solvents; chloroform) | other results |
| --- | --- | --- | --- | --- | --- | --- | --- | --- | --- | --- | --- | --- | --- | --- | --- | --- | --- | --- | --- | --- | --- |
| COc1cc(C(=O)OC(C(=O)NC(C(=O)NCC(C)=O)=C2C(OC(C)=O)C(O)C3CN23)C2(C)CO2)c2cccc(C)c2c1 (stereo not shown) [SS42227A] | 0.78 (≈ 1.31 µM) | 6.25 (≈ 10.5 µM) | 6.25 (≈ 10.5 µM) | 1.56 (≈ 2.62 µM) | 6.25 (≈ 10.5 µM) | < 0.2 | 0.78 (≈ 1.31 µM) | < 0.2 | > 100 | < 0.2 | > 100 | 3.12 (≈ 5.24 µM) | 100 (≈ 168 µM) | 100 (≈ 168 µM) | > 100 | > 100 | > 100 | 100 (≈ 168 µM) | Soluble | Soluble | Antitumor Activity T/C (survival time treated/control) (mouse leukemia P-388; 2 μg/kg/day): 163%; Antitumor Activity T/C (survival time treated/control) (mouse leukemia P-388; 4 μg/kg/day): 144%; Antitumor Activity T/C (survival time treated/control) (mouse leukemia P-388; 8 μg/kg/day): 154%; Antitumor Activity T/C (survival time treated/control) (mouse leukemia P-388; 15 μg/kg/day): 192%; Antitumor Activity T/C (survival time treated/control) (mouse leukemia P-388; 15.1 μg/kg/day): 170%; Antitumor Activity T/C (survival time treated/control) (mouse leukemia P-388; 30 μg/kg/day): 211%; Antitumor Activity T/C (survival time treated/control) (mouse leukemia P-388; 31.2 μg/kg/day): 195%; Antitumor Activity T/C (survival time treated/control) (mouse leukemia P-388; 60 μg/kg/day): 77%; Antitumor Activity T/C (survival time treated/control) (mouse leukemia P-388; 62.5 μg/kg/day): 152%; Solubility to solvents (Solubility to solvents; diethyl ether): Soluble; Solubility to solvents (Solubility to solvents; ethyl acetate): Soluble; Solubility to solvents (Solubility to solvents; methanol): Soluble; Solubility to solvents (Solubility to solvents; n-hexane): Sparingly soluble; Solubility to solvents (Solubility to solvents; water): Sparingly soluble; Property as to basic, acid or neutral [14]: Neutral |
| COc1cc(C(=O)OC(C(=O)NC(C(=O)NC(=CO)C(C)=O)=C2C(OC(C)=O)C(O)C3CN23)C2(C)CO2)c2cccc(C)c2c1 (stereo not shown) [SS42227B] | 50 (≈ 80.2 µM) | 50 (≈ 80.2 µM) | 50 (≈ 80.2 µM) | 1.56 (≈ 2.5 µM) | 100 (≈ 160 µM) | < 0.2 | 0.78 (≈ 1.25 µM) | < 0.2 | > 100 | 0.78 (≈ 1.25 µM) | > 100 | 50 (≈ 80.2 µM) | > 100 | > 100 | > 100 | > 100 | > 100 | > 100 | Soluble | Soluble | Solubility to solvents (Solubility to solvents; diethyl ether): Sparingly soluble; Solubility to solvents (Solubility to solvents; ethyl acetate): Soluble; Solubility to solvents (Solubility to solvents; methanol): Soluble; Solubility to solvents (Solubility to solvents; n-hexane): Sparingly soluble; Solubility to solvents (Solubility to solvents; water): Sparingly soluble; Property as to basic, acid or neutral [14]: Acid |
